This experiment concerns the target human URAT1 (Homo sapiens (Human), UniProt Q96S37). Put plainly: Test for uric acid transport inhibition using human URAT1 expression cell. Type of experiment: cell-based. Conditions: human URAT1 stable expression CHO cell; 14C-labeled uric acid 38 μM final concentration; incorporation at room temperature for 5 minutes; 100% window defined with benzbromarone 100 μM; read-out: URAT1 Inhibitory Activity (IC50). As to the method: In this Example, it was evaluated whether the Example compound has the URAT1 inhibitory activity.
Human URAT1 full-length cDNA was introduced to an expression vector pcDNA5/FRT/V5-His TOPO (registered trademark) (Invitrogen Corporation). The obtained expression plasmid was introduced to Chinese hamster ovary cell (hereinafter referred to as the CHO cell) by the liposome method using Lipofectamine LTX (Invitrogen), and cultured in a selection medium including hygromycin, whereby to prepare human URAT1 stable expression cell.
The human URAT1 expression CHO cell was cultured using D-MEM/F-12 (1:1) mixed medium including 10% bovine fetal serum and hygromycin at 37° C. in the presence of 5% CO2. The cells were seeded onto a 96 well plate (Corning Incorporated) in 0.8×10^5 cells/well, and after 24 hours, the test for uric acid transport inhibition below was performed.
The medium was removed by aspiration, and then the cells were washed once with an assay buffer including 125 mM of sodium gluconate, 4.8 mM of potassium gluconate, 1.2 mM of potassium dihydrogen phosphate, 1.2 mM of magnesium sulfate, 1.3 mM of calcium gluconate and 5.6 mM of glucose. 50 μL assay buffer including the test compound in various concentrations was added, and further 50 μL assay buffer including a radioactive ligand (uric acid labeled with ^14C; 38 μM final concentration) was added, and incorporation reaction was performed at room temperature for 5 minutes. Immediately after completion of the reaction, the reaction mixture was washed twice with 100 μL ice-cold assay buffer, and 100 μL of 0.1 N sodium hydroxide was added. The reaction mixture was stirred to lyse the cells, and 4 mL Hionic-Fluor (Packard BioScience CO) was added, and then the radioactivity was measured with a liquid scintillation counter (Beckman Coulter, Inc. and Packard BioScience CO).
The radioactivity when each concentration of the test compound was added (uric acid incorporation activity, %) was calculated in which the difference of the radioactivity when the test compound was not added (DMSO added), and the radioactivity when a positive control compound, benzbromarone (known URAT1 inhibitor) was added in 100 μM, was taken as 100%, and the concentration of the test compound when the uric acid incorporation activity was inhibited to 50% (IC50) was obtained.

pIC50: −log10 of the molar value.

human URAT1, sequence (Q96S37 whole entry): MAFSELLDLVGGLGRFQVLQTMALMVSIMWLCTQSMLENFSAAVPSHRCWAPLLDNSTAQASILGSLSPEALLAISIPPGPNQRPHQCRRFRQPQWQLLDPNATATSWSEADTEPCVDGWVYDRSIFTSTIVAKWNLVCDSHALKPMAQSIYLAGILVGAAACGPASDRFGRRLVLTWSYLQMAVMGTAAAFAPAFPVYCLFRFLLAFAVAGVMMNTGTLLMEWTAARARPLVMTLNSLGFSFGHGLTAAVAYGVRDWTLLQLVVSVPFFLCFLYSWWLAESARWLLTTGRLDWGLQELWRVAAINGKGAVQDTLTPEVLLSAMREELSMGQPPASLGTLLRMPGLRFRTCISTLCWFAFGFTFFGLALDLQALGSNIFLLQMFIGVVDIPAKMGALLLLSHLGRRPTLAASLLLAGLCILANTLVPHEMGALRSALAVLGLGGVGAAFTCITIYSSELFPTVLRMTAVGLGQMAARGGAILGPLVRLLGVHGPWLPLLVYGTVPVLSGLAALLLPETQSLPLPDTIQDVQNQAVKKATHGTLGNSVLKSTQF

As to `Cc1nn(Cc2c(F)cccc2Cl)c2cc(CC(=O)O)ccc12` [Example 104, 2-[1-(2-chloro-6-fluorobenzyl)-3-methyl-1H-indazole-6-yl]acetic acid], the pIC50 was 7.00. With `Cc1nn(Cc2c(Cl)cccc2Cl)c2cc(CCc3nnn[nH]3)ccc12` [Example 135, 1-(2,6-dichlorobenzyl)-3-methyl-6-[2-(1H-tetrazole-5-yl)ethyl]-1H-indazole], the pIC50 was 7.64. The same measure for `Clc1cccc(Cl)c1Cn1nc(Cl)c2ncc(-c3nnn[nH]3)cc21` [Example 175, 3-chloro-1-(2,6-dichlorobenzyl)-6-(1H-tetrazole-5-yl)-1H-pyrazolo[4,3-b]pyridine]: 6.79; for `Cc1nn(Cc2cccc3ccccc23)c2cc(CC(=O)O)ccc12` [Example 107, 2-[3-methyl-1-(naphthalene-1-ylmethyl)-1H-indazole-6-yl]acetic acid]: 7.11. The same measure for `CCc1nn(Cc2c(C)cccc2C)c2cc(CC(=O)O)ccc12` [Example 142, 2-[1-(2,6-dimethylbenzyl)-3-ethyl-1H-indazole-6-yl]acetic acid]: 7.30; for `Cc1nn(Cc2csc3ccc(Cl)cc23)c2cc(CC(=O)O)ccc12` [Example 106, 2-{1-[(5-chlorobenzo[b]thiophene-3-yl)methyl]-3-methyl-1H-indazole-6-yl}acetic acid]: 7.26. `Cc1nn(Cc2c(Cl)cccc2Cl)c2cc(Cc3nnn[nH]3)ccc12` [Example 134, 1-(2,6-dichlorobenzyl)-3-methyl-6-(1H-tetrazole-5-ylmethyl)-1H-indazole]: the pIC50 was 7.89. Then `Cc1cccc(C)c1Cn1cc(C)c2ccc(CC(=O)O)cc21` [Example 64, 2-[1-(2,6-dimethylbenzyl)-3-methyl-1H-indole-6-yl]acetic acid], with 7.66; and `Cc1cccc(C)c1Cn1nc(C)c2ccc(CC(=O)O)cc21` [Example 66, 2-[1-(2,6-dimethylbenzyl)-3-methyl-1H-indazole-6-yl]acetic acid], with 7.17. The same measure for `Cc1nn(Cc2c(Cl)cccc2Cl)c2cc(CS(=O)(=O)O)ccc12` [Example 139, [1-(2,6-dichlorobenzyl)-3-methyl-1H-indazole-6-yl]methanesulfonic acid]: 6.19; for `Cc1cccc(C)c1Cn1nc(C)c2ccc(C(=O)O)cc21` [Example 117, 1-(2,6-dimethylbenzyl)-3-methyl-1H-indazole-6-carboxylic acid]: 7.04. Then `Cc1nn(Cc2c(Cl)cccc2Cl)c2cc(C(O)C(=O)O)ccc12` (centres unmarked) [Example 128, [1-(2,6-dichlorobenzyl)-3-methyl-1H-indazole-6-yl]hydroxyacetic acid], with 6.24. Regarding `Cc1cn(Cc2cc3c(cc2Cl)OCO3)c2cc(CC(=O)O)ccc12` [Example 88, 2-{1-[(6-chlorobenzo[d][1,3]dioxol-5-yl)methyl]-3-methyl-1H-indole-6-yl}acetic acid], the pIC50 is 7.01.

Regarding `Cc1cccc(C)c1CN1CC(C)(C)c2ccc(CC(=O)O)cc21` [Example 80, 2-[1-(2,6-dimethylbenzyl)-2,3-dihydro-3,3-dimethyl-1H-indole-6-yl]acetic acid], the pIC50 is 7.74. Then `Cc1cccc(Cl)c1Cn1nc(Cl)c2ncc(-c3nnn[nH]3)cc21` [Example 177, 3-chloro-1-(2-chloro-6-methylbenzyl)-6-(1H-tetrazole-5-yl)-1H-pyrazolo[4,3-b]pyridine], with 6.98; and `Cc1cn(Cc2c(Cl)cccc2Cl)c2cc(CCC(=O)O)ccc12` [Example 89, 3-[1-(2,6-dichlorobenzyl)-3-methyl-1H-indole-6-yl]propionic acid], with 7.64. The same measure for `Cc1nn(Cc2c(Cl)cccc2C#N)c2cc(CCC(=O)O)ccc12` [Example 125, 3-[1-(2-chloro-6-cyanobenzyl)-3-methyl-1H-indazole-6-yl]propionic acid]: 7.14. In the case of `CCc1cn(Cc2c(C)cccc2C)c2cc(C(=O)O)ccc12` [Example 91, 1-(2,6-dimethylbenzyl)-3-ethyl-1H-indole-6-carboxylic acid], the pIC50 was 7.37. The same measure for `Cc1cccc(C)c1Cn1nc(C(C)C)c2ccc(CC(=O)O)cc21` [Example 147, 2-[1-(2,6-dimethylbenzyl)-3-isopropyl-1H-indazole-6-yl]acetic acid]: 7.12; for `CCc1nn(Cc2c(Cl)cccc2Cl)c2cc(CC(=O)O)ccc12` [Example 140, 2-[1-(2,6-dichlorobenzyl)-3-ethyl-1H-indazole-6-yl]acetic acid]: 7.62; for `Cc1cc(C)c(Cn2nc(C)c3ccc(CC(=O)O)cc32)c(C)c1` [Example 108, 2-[3-methyl-1-(2,4,6-trimethylbenzyl)-1H-indazole-6-yl]acetic acid]: 7.03.

For `Cc1nn(Cc2c(Cl)cccc2Cl)c2cc(OCC(=O)O)ccc12` [Example 138, 2-[1-(2,6-dichlorobenzyl)-3-methyl-1H-indazole-6-yloxy]acetic acid], the pIC50 was 6.04. The same measure for `Cc1nn(Cc2c(Cl)cccc2Cl)c2nc(Cc3nnn[nH]3)ccc12` [Example 152, 1-(2,6-dichlorobenzyl)-3-methyl-6-(1H-tetrazole-5-ylmethyl)-1H-pyrazolo[3,4-b]pyridine]: 6.74; for `CCc1nn(Cc2c(Cl)cccc2Cl)c2cc(/C=C/C(=O)O)ccc12` [Example 146, (E)-3-[1-(2,6-dichlorobenzyl)-3-ethyl-1H-indazole-6-yl]acrylic acid]: 7.28; for `Cc1cccc(C)c1Cn1c(=O)n(C(C)C)c2ccc(C(=O)O)cc21` [Example 186, 3-(2,6-dimethylbenzyl)-1-isopropyl-2-oxo-2,3-dihydro-1H-benzimidazole-5-carboxylic acid]: 6.78.

With `Cc1cn(Cc2c(F)cccc2Cl)c2cc(CC(=O)O)ccc12` [Example 86, 2-[1-(2-chloro-6-fluorobenzyl)-3-methyl-1H-indole-6-yl]acetic acid], the pIC50 is 7.55. Regarding `N#Cc1nn(Cc2c(Cl)cccc2Cl)c2cc(C(=O)O)ccc12` [Example 150, 3-cyano-1-(2,6-dichlorobenzyl)-1H-indazole-6-carboxylic acid], the pIC50 was 6.53. Then `Cc1nn(Cc2c(Cl)cccc2Cl)c2cc(CCC(=O)O)ccc12` [Example 122, 3-[1-(2,6-dichlorobenzyl)-3-methyl-1H-indazole-6-yl]propionic acid], with 8.00; and `Cc1ccc(C)c(Cn2nc(C)c3ncc(-c4nnn[nH]4)cc32)c1` [Example 163, 1-(2,5-dimethylbenzyl)-3-methyl-6-(1H-tetrazole-5-yl)-1H-pyrazolo[4,3-b]pyridine], with 6.95; and `Cc1cccc(C)c1Cn1cc(Cl)c2ccc(CC(=O)O)cc21` [Example 68, 2-[3-chloro-1-(2,6-dimethylbenzyl)-1H-indole-6-yl]acetic acid], with 7.52. The same measure for `Cc1nn(Cc2c(Cl)cccc2Cl)c2cc(C(=O)O)cnc12` [Example 153, 1-(2,6-dichlorobenzyl)-3-methyl-1H-pyrazolo[4,3-b]pyridine-6-carboxylic acid]: 6.44; for `CCc1nn(Cc2c(C)cccc2C)c2cc(C(=O)O)ccc12` [Example 143, 1-(2,6-dimethylbenzyl)-3-ethyl-1H-indazole-6-carboxylic acid]: 7.46.

For orientation: pIC50 means the negative decadic logarithm of the IC50, by convention in mol/L.

The record behind these values is patent US8987473B2, “Ring-fused compound” (Sato Pharmaceutical Co., Ltd., priority 2011, dated 2015).
